Measured values as given in ChEMBL document CHEMBL1130277, “Three-dimensional quantitative structure-activity relationships from molecular similarity matrices and genetic neural networks. 2. Applications” (J Med Chem, 1997).

These molecules were tested against Acetylcholinesterase (Homo sapiens, UniProt P22303).
Acetylcholinesterase, sequence (P22303 whole entry): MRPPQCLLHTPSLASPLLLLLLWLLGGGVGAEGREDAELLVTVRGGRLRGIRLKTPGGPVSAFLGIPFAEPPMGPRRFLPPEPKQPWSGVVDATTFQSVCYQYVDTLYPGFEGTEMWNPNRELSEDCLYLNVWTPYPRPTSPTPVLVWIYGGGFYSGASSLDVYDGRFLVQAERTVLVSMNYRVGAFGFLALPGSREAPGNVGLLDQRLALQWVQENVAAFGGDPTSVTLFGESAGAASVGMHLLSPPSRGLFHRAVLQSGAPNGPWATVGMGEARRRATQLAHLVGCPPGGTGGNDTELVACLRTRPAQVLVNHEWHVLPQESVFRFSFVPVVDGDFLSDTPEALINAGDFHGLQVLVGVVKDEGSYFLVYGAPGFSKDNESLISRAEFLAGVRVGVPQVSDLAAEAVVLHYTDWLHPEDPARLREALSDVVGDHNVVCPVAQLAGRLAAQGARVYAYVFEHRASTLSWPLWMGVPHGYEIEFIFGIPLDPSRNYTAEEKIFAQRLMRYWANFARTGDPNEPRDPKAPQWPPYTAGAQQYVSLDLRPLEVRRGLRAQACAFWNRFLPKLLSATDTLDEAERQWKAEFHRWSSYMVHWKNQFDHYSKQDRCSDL
Description: Inhibition acetylcholinesterase (AChE) enzyme.

SMILES	IC50 [µM]
CCOCC[N+](C)(C)C	1160
C=CCC[N+](C)(C)C	847
C=CC[N+](C)(C)C	2920
C[N+](C)(C)CCS	440
COc1cccc([N+](C)(C)C)c1	597
CCCCCC[N+](C)(C)C	817
CCC(=O)Oc1cccc([N+](C)(C)C)c1	5.97
CCSCC[N+](C)(C)C	1510
CCC(=O)Oc1ccc(C)c([N+](C)(C)C)c1	69
CCC(=O)Oc1cccc([N+](C)(C)C)c1C	753
CC(=O)Oc1cccc([N+](C)(C)C)c1C	40.8
COc1ccc(C)c([N+](C)(C)C)c1	345
CC(=O)CCC[N+](C)(C)C	84.7
CC(=O)Nc1cccc([N+](C)(C)C)c1	1000
Cc1ccc([N+](C)(C)C)cc1O	3.11
Cc1ccc(O)cc1[N+](C)(C)C	2.82
CCC(=O)Oc1cc([N+](C)(C)C)ccc1C	3.77
COc1cc([N+](C)(C)C)ccc1C	122
C[N+]1(C)CCO[C@@](O)(c2ccc(N)cc2)C1	690
CC(=O)Oc1cc([N+](C)(C)C)ccc1C	0.659

SMILES	IC50 [µM]
CCCC(=O)SCC[N+](C)(C)C	126
C=CCCC[N+](C)(C)C	1130
C[N+]1(C)CCO[C@@](O)(c2ccc(C#N)cc2)C1	11600
COc1cccc([N+](C)(C)C)c1C	239
C[N+]1(C)CCO[C@@](O)(c2ccc(Cl)cc2)C1	8130
C[N+](C)(C)CCCCI	471
CC(=O)Oc1ccc(C)c([N+](C)(C)C)c1	5.33
C[N+](C)(C)CCCl	2390
CC(=O)Nc1ccc([C@@]2(O)C[N+](C)(C)CCO2)cc1	2070
CCCC(=O)OCC[N+](C)(C)C	229
C[C@@]1(O)C[N+](C)(C)CCO1	1730
Cc1c(O)cccc1[N+](C)(C)C	141
CC(=O)Oc1cccc([N+](C)(C)C)c1	3.01
C[N+](C)(C)CCCCCBr	535
C[N+]1(C)CCO[C@@](O)(C(F)(F)F)C1	3830
C[N+](C)(C)CCCCBr	597
C[N+]1(C)CCO[C@H](O)C1	1760
C[N+](C)(C)c1cccc(O)c1	0.973
CC(C)(C)[C@@]1(O)C[N+](C)(C)CCO1	3710
C[N+]1(C)CCO[C@@](O)(c2ccc([N+](=O)[O-])cc2)C1	5120

Each molecule was assayed against T1, Aryl hydrocarbon receptor (Homo sapiens, UniProt P35869).
T1 sequence (P35869 whole entry): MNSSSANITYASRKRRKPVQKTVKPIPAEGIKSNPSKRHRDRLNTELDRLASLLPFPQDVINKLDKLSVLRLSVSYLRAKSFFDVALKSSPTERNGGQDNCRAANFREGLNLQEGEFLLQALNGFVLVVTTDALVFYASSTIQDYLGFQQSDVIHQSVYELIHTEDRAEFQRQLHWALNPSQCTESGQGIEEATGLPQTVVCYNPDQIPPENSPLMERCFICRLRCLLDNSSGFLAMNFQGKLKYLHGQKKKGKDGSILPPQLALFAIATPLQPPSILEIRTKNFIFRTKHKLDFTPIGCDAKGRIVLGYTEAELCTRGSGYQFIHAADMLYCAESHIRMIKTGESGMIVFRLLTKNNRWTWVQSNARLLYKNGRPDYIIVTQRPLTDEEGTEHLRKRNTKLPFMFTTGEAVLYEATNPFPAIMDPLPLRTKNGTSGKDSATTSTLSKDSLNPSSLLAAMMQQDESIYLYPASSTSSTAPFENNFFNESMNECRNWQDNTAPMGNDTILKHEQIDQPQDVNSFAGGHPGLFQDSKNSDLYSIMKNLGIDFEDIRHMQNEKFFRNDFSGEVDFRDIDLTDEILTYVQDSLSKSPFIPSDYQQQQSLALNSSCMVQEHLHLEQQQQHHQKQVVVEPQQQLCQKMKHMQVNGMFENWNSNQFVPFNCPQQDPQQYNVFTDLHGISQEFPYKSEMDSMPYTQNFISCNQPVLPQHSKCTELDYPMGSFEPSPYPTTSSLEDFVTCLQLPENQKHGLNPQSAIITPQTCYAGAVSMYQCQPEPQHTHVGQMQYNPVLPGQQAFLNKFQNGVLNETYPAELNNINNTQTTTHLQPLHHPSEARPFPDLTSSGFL
Description: Affinity on cytosolic Aromatic hydrocarbon receptor (Ah)

SMILES	EC50 [µM]
Clc1cc(Cl)c2c(c1)oc1cc(Cl)c(Cl)c(Cl)c12	0.4
Clc1cc2oc3c(Cl)cccc3c2c(Cl)c1Cl	0.35
Brc1cc(Br)c2c(c1)Oc1cc(Br)cc(Br)c1O2	0.0929
Brc1ccc2c(c1)Oc1ccc(Br)cc1O2	0.0155
Clc1cc2c(cc1Cl)Oc1c(Cl)c(Cl)c(Cl)c(Cl)c1O2	0.28
Clc1cc(-c2ccc(Cl)c(Cl)c2Cl)cc(Cl)c1Cl	5
Clc1cc(Cl)c(-c2cc(Cl)c(Cl)c(Cl)c2)cc1Cl	16
Clc1cc2c(cc1Cl)Oc1c(Cl)cccc1O2	0.22
Clc1cc(Cl)c2c(c1)Oc1cc(Cl)c(Cl)cc1O2	0.794
Clc1ccc2c(c1)Oc1cc(Cl)c(Cl)cc1O2	0.071
Clc1cc2oc3c(Cl)cc(Cl)c(Cl)c3c2cc1Cl	1.3
Clc1cc2c(cc1Cl)Oc1cc(Br)c(Br)cc1O2	0.00148
Brc1ccc2c(c1)Oc1cc(Br)c(Br)cc1O2	0.00117
Clc1c(Cl)c(Cl)c2c(c1Cl)Oc1c(Cl)c(Cl)c(Cl)c(Cl)c1O2	10
Clc1ccc(-c2cc(Cl)c(Cl)c(Cl)c2Cl)cc1Cl	7.1
Clc1ccc2oc3c(Cl)cc(Cl)c(Cl)c3c2c1	10
Clc1cc(Cl)c2c(c1Cl)Oc1ccccc1O2	13
Clc1cc2oc3cc(Cl)c(Cl)cc3c2cc1Cl	0.041
Clc1ccc2c(c1)oc1cc(Cl)c(Cl)c(Cl)c12	0.219
Clc1ccc2c(oc3c(Cl)cc(Cl)c(Cl)c32)c1Cl	0.0678
Clc1cc2c(oc3c(Cl)cccc32)c(Cl)c1Cl	0.35
Clc1cc(Cl)c2oc3cc(Cl)c(Cl)cc3c2c1	0.22

SMILES	EC50 [µM]
Clc1cc2c(oc3c(Cl)cc(Cl)c(Cl)c32)c(Cl)c1Cl	8.3
Clc1cc(Cl)c2oc3c(Cl)cc(Cl)c(Cl)c3c2c1	3.1
Brc1cc(Br)c2c(c1)Oc1cc(Br)c(Br)cc1O2	0.002
Clc1cc2c(cc1Cl)Oc1c(cc(Cl)c(Cl)c1Cl)O2	0.0794
Clc1ccc(-c2cc(Cl)c(Cl)cc2Cl)cc1Cl	9.1
Clc1cc2oc3cc(Cl)c(Cl)c(Cl)c3c2cc1Cl	0.0741
Clc1cc2c(cc1Br)Oc1cc(Br)c(Cl)cc1O2	0.000447
Clc1cc(Cl)c2c(c1)oc1c(Cl)cc(Cl)c(Cl)c12	20
Clc1ccc2oc3c(Cl)c(Cl)c(Cl)cc3c2c1	0.2
Clc1cccc2c1Oc1ccccc1O2	100
Clc1ccc(-c2cc(Cl)c(Cl)c(Cl)c2)c(Cl)c1	14.1
Brc1cc2c(cc1Br)Oc1c(cc(Br)c(Br)c1Br)O2	0.00661
Clc1ccc(-c2cc(Cl)c(Cl)c(Cl)c2)cc1	28
Clc1cc2c(cc1Cl)Oc1c(ccc(Cl)c1Cl)O2	0.16
Clc1cc(Cl)c2c(c1)oc1c(Cl)cccc12	4.37
Clc1cc2c(cc1Cl)Oc1cc(Br)c(Cl)cc1O2	0.0115
Clc1cc(Cl)c(-c2cc(Cl)c(Cl)c(Cl)c2)c(Cl)c1	99.1
Brc1ccc2c(c1)Oc1ccccc1O2	0.295
Clc1cccc2c1oc1ccccc12	1000
Clc1ccc2c(c1)oc1ccccc12	42
Clc1cc(-c2ccccc2)c(Cl)c(Cl)c1Cl	140
Clc1ccc(-c2cc(Cl)c(Cl)c(Cl)c2Cl)cc1	4.1

SMILES	EC50 [µM]
Clc1cc(Cl)c2c(c1)oc1c(Cl)c(Cl)c(Cl)cc12	0.2
Clc1cc2oc3c(Cl)c(Cl)c(Cl)cc3c2cc1Cl	0.0151
Clc1ccc2c(c1)oc1c(Cl)c(Cl)c(Cl)cc12	0.0251
Clc1cc2c(cc1Cl)Oc1c(Cl)c(Cl)cc(Cl)c1O2	1.1
Clc1ccc2c(c1)Oc1c(Cl)c(Cl)c(Cl)c(Cl)c1O2	6.46
Clc1cc(Cl)c2c(c1)oc1ccc(Cl)cc12	85.1
Clc1ccc(-c2ccc(Cl)c(Cl)c2Cl)cc1Cl	4.27
Brc1cc2c(cc1Br)Oc1cc(Br)c(Br)cc1O2	0.0015
Clc1ccc2c(c1)Oc1cc(Cl)ccc1O2	3.2
Clc1cc2oc3c(Cl)c(Cl)cc(Cl)c3c2cc1Cl	0.2
Clc1cc2oc3c(Cl)c(Cl)c(Cl)c(Cl)c3c2cc1Cl	0.23
Clc1cc2c(oc3c(Cl)c(Cl)c(Cl)cc32)c(Cl)c1Cl	0.0468
Clc1cc2c(oc3cc(Cl)c(Cl)c(Cl)c32)c(Cl)c1Cl	0.27
Clc1c(Cl)c(Cl)c2c(c1Cl)Oc1ccccc1O2	1.3
Clc1ccc(-c2ccc(Cl)c(Cl)c2)cc1Cl	0.71
Clc1ccc2oc3c(Cl)c(Cl)c(Cl)c(Cl)c3c2c1	0.12
Brc1cc2c(cc1Br)Oc1c(Br)c(Br)cc(Br)c1O2	0.017
Clc1cc(Cl)c(-c2cc(Cl)c(Cl)cc2Cl)cc1Cl [2,2',4,4',5,5'-HEXACHLOROBIPHENYL]	79.4
Clc1cc2c(cc1Cl)Oc1cc(Cl)c(Cl)cc1O2 [2,3,7,8-TETRACHLORODIBENZO-P-DIOXIN]	0.01
Clc1ccc(-c2cc(Cl)c(Cl)c(Cl)c2)cc1Cl [POLYCHLORINATED BIPHENYL 126]	0.13
